Legend:
[1] = test system: T2 cells; assay: IFNγ release by CTL (ELISA) after incubation with peptide-loaded T2 cells; assay type: cell-based, human; conditions: CTL elicited with the corresponding HER2/neu peptide, 20 h, 10^5 CTL/well
Description: In interferon gamma-release assays, 10^5 HER2/neu-specific CTL were co-incubated with 10^5 peptide-loaded T2 cells for 20 hours at 37° C. The concentrations of human interferon gamma in co-cultured supernatants were then determined by ELISA.

[2] = test system: breast cancer cells MDA-MB-231; assay: IFNγ release by CTL (ELISA) after incubation with peptide-loaded MDA-MB-231 cells; assay type: cell-based, human; conditions: CTL elicited with the corresponding HER2/neu peptide, 20 h, 10^5 CTL/well
Description: In interferon gamma release assays, 10^5 HER2/neu-specific CTL were co-incubated with 10^5 peptide-loaded tumor cells for 20 hours at 37° C. The concentration of human interferon gamma in co-cultured supernatants was then determined by ELISA.

[3] = test system: T2 cells; assay: 51Cr-release assay using T2 cells pulsed with HER2/neu-derived peptides as targets for CTL; conditions: T2 pulsed with the peptide; percentage of specific lysis
Description: To probe class I presentation of cells loaded with the fusion peptides and their counterpart minimal peptides CTL recognizing the HER2/neu-derived peptides were generated. In vitro peripheral blood mononuclear cells (PBMCs) were immunized from healthy donors with these peptides in the presence of interleukin 2 and interleukin 7 using the following technique:
The next day, 12 units/ml IL-2 (Chiron) and 30 units/ml IL-7 (R & D Systems) were added to the cultures. Lymphocytes were re-stimulated weekly with peptide-pulsed autologous adherent cells as follows: First, autologous PBMC were incubated with HER2/neu peptide (10 μg/ml) for 3 h at 37° C. Nonadherent cells were then removed by a gentle wash and the adherent cells were incubated with fresh medium containing the HER2/neu peptide (10 μg/ml) for an additional 3 h at 37° C.
The induction of CTL in human PBMC was monitored in a conventional ^51Cr-labeling release assay. Briefly, peptide-pulsed TAP^−/HLA-A2.1^+ human T2 cells were incubated with 10 μg of HER2/neu peptides or the MART-1 control peptide for 90 min during labeling with ^51Cr. After washing, the target cells were added to serially diluted effectors in 96-well microplates. After a 6-h incubation at 37° C., supernatants were harvested and counted in a gamma counter. Results are expressed as the percentage of specific lysis and determined as follows: [(experimental cpm−spontaneous cpm)/(maximum cpm−spontaneous cpm)]×100.

Row | Substance | Release of IFNγ by CTL, T2 cells loaded with the peptide ([1]; Day 1 after peptide loading) [pg/mL] | Release of IFNγ by CTL, T2 cells loaded with the peptide ([1]; Day 3 after peptide loading) [pg/mL] | Release of IFNγ by CTL, T2 cells loaded with the peptide ([1]; Day 5 after peptide loading) [pg/mL] | Release of IFNγ by CTL, T2 cells loaded with the peptide ([1]; Day 8 after peptide loading) [pg/mL] | Release of IFNγ by CTL, MDA-MB-231 cells loaded with the peptide ([2]; Day 1 after peptide loading) [pg/mL] | Release of IFNγ by CTL, MDA-MB-231 cells loaded with the peptide ([2]; Day 3 after peptide loading) [pg/mL] | Release of IFNγ by CTL, MDA-MB-231 cells loaded with the peptide ([2]; Day 5 after peptide loading) [pg/mL] | Release of IFNγ by CTL, MDA-MB-231 cells loaded with the peptide ([2]; Day 8 after peptide loading) [pg/mL] | 51Cr-release, E:T ratio 1.5:1 [3] [%] | 51Cr-release, E:T ratio 3.1 [3] [%] | 51Cr-release, E:T ratio 6:1 [3] [%] | 51Cr-release, E:T ratio 12:1 [3] [%] | 51Cr-release, E:T ratio 25:1 [3] [%] | 51Cr-release, E:T ratio 50:1 [3] [%]
1 | CLTSTVQLV MTNKCLLQIALLLCFSTTA (CLTSTVQLVMTNKCLLQIALLLCFSTTA) [HER789-797-IS] | 69 | 78 | 87 | 59 | – | – | – | – | – | – | – | – | – | –
2 | MRYMILGLLALAAVCSA HLYQGCQVV (MRYMILGLLALAAVCSAHLYQGCQVV) [ES-HER48-56] | 2894 | 1876 | 953 | 589 | – | – | – | – | – | – | – | – | – | –
3 | M A CLTSTVQLV A A A A A G (MACLTSTVQLVAAAAAG) [HER789-797-IN-AF] | 296 | 327 | 178 | 117 | – | – | – | – | – | – | – | – | – | –
4 | CLTSTVQLV MRYMILGLLALAAVCSA (CLTSTVQLVMRYMILGLLALAAVCSA) [HER789-797-ES] | 58 | 78 | 69 | 98 | – | – | – | – | – | – | – | – | – | –
5 | MTNKCLLQIALLLCFSTTALS HLYQGCQVV (MTNKCLLQIALLLCFSTTALSHLYQGCQVV) [IS-HER48-56] | 3268 | 1264 | 943 | 614 | – | – | – | – | – | – | – | – | – | –
6 | IISAVVGIL MRYMILGLLALAAVCSA (IISAVVGILMRYMILGLLALAAVCSA) [HER654-662-ES] | 144 | 124 | 137 | 83 | 188 | 138 | 135 | 93 | – | – | – | – | – | –
7 | CLTSTVQLV (listed as Homo sapiens) [HER2/neu789-797] | 2924 | 317 | 116 | 91 | – | – | – | – | 9 | 22 | 31 | 52 | 62 | 83
8 | IISAVVGIL (listed as Homo sapiens) [HER2/neu654-662, reference compound] | 2827 | 429 | 121 | 167 | 2826 | 438 | 131 | 147 | 13 | 26 | 38 | 59 | 71 | 91
9 | HLYQGCQVV MTNKCLLQIALLLCFSTTALS (HLYQGCQVVMTNKCLLQIALLLCFSTTALS) [HER48-56-IS] | 288 | 148 | 155 | 121 | – | – | – | – | – | – | – | – | – | –
10 | HLYQGCQVV MRYMILGLLALAAVCSA (HLYQGCQVVMRYMILGLLALAAVCSA) [HER48-56-ES] | 418 | 218 | 99 | 101 | – | – | – | – | – | – | – | – | – | –
11 | HLYQGCQVV (listed as Homo sapiens) [HER2/neu48-56] | 2280 | 488 | 134 | 177 | – | – | – | – | 8 | 19 | 33 | 41 | 53 | 88
12 | M R CLTSTVQLV A A V C S A (MRCLTSTVQLVAAVCSA) [HER789-797-IN-ES] | 246 | 312 | 121 | 107 | – | – | – | – | – | – | – | – | – | –
13 | MTNKCLLQIALLLCFSTTALS CLTSTVQLV (MTNKCLLQIALLLCFSTTALSCLTSTVQLV) [IS-HER789-797] | 1717 | 315 | 125 | 104 | – | – | – | – | – | – | – | – | – | –
14 | IISAVVGIL MTNKCLLQIALLLCFSTTALS (IISAVVGILMTNKCLLQIALLLCFSTTALS) [HER654-662-IS] | 111 | 99 | 121 | 76 | 144 | 102 | 132 | 86 | – | – | – | – | – | –
15 | MR HLYQGCQVV AAVCSA (MRHLYQGCQVVAAVCSA) [HER48-56-IN-ES] | 3368 | 1349 | 988 | 228 | – | – | – | – | – | – | – | – | – | –
16 | MRYMILGLLALAAVCSA CLTSTVQLV (MRYMILGLLALAAVCSACLTSTVQLV) [ES-HER789-797] | 1824 | 526 | 168 | 110 | – | – | – | – | – | – | – | – | – | –

From patent publication US20080044484A1, “Use of polymeric nanoparticles for vaccine delivery” (THE REGENTS OF THE UNIVERSITY OF CALIFORNIA, priority 2004, published 2008)
